Experimental data as given in patent publication US8765779B2, “Tricyclic derivatives and their pharmaceutical use and compositions” (Cephalon, Inc., priority 2009, dated 2014).
Where a name gives a salt, the structure may show the parent alone.

| Structure (SMILES) | melting point |
| --- | --- |
| N#Cc1ccc(COc2cccc(S(=O)(=O)c3ccc4c(c3)OC3CNCCC43)c2)cc1 (stereo not drawn) (as salt: HCl) [Example 551] | 203 to 204 °C |
| O=S(=O)(c1cccc(OCC(F)F)c1)c1ccc2c(c1)OC1CNCCC21 (stereo not drawn) (as salt: HCl) [Example 578] | 263 to 266 °C |
| O=S(=O)(c1cccc(OCC2CC2)c1)c1ccc2c(c1)OC1CNCCC21 (stereo not drawn) (as salt: HCl) [Example 555] | 208 to 210 °C |
| O=S(=O)(c1cccc(OCCn2cccc2)c1)c1ccc2c(c1)OC1CNCCC21 (stereo not drawn) (as salt: HCl) [Example 573] | 233 to 234 °C |
| O=S(=O)(c1ccc2c(c1)OC1CNCCC21)c1cccc(OCC2CCOCC2)c1F (stereo not drawn) (as salt: HCl) [Example 482] | 175 to 177 °C |
| COc1cc(OC)cc(S(=O)(=O)c2ccc3c(c2)OC2CNCCC32C)c1 (stereo not drawn) (as salt: HCl) [Example 489] | 254 to 255 °C |
| O=S1(=O)CCC2(CC1)NCCc1c2oc2cc(S(=O)(=O)c3cccc(F)c3)ccc12 (as salt: HCl) [Example 38, 7-[(3-fluorophenyl)sulfonyl]-2′,3,3′,4,5′,6′-hexahydro-2H-spiro[1-benzofuro[2,3-c]pyridine-1,4′-thiopyran] 1′,1′-dioxide] | 298 to 300 °C (dec.) |
| O=S(=O)(c1cccc(OCc2ccccn2)c1)c1ccc2c(c1)OC1CNCCC21 (stereo not drawn) (as salt: HCl) [Example 562] | 179 to 182 °C |
| C#CCOc1cccc(S(=O)(=O)c2ccc3c(c2)OC2CNCCC32)c1 (stereo not drawn) (as salt: HCl) [Example 549] | 174 to 175 °C |
| N#Cc1cccc(COc2cccc(S(=O)(=O)c3ccc4c(c3)OC3CNCCC43)c2)c1 (stereo not drawn) (as salt: HCl) [Example 552] | 200 to 201 °C |
| COc1cccc(COc2cccc(S(=O)(=O)c3ccc4c(c3)OC3CNCCC43)c2)c1 (stereo not drawn) (as salt: HCl) [Example 575] | 247 to 248 °C |
| CC1(C2CC2)NCCc2c1oc1cc(S(=O)(=O)c3cccc(F)c3)ccc21 (racemic) (as salt: HCl) [Example 29, 1-cyclopropyl-7-[(3-fluorophenyl)sulfonyl]-1-methyl-1,2,3,4-tetrahydro[1]benzofuro[2,3-c]pyridine] | > 250 °C (dec.) |
| O=S(=O)(c1cccc(OC2CCOCC2)c1)c1ccc2c(c1)OC1CNCCC21 (stereo not drawn) (as salt: HCl) [Example 571] | 184 to 186 °C |
| CC1(C)CNC2(CCOC2)c2oc3cc(S(=O)(=O)c4cccc(F)c4)ccc3c21 (racemic) (as salt: HCl) [Example 46, 7-[(3-fluorophenyl)sulfonyl]-4,4-dimethyl-3,4,4′,5′-tetrahydro-2H-spiro[1-benzofuro[2,3-c]pyridine-1,3′-furan]] | 263 to 268 °C |
| COc1cc(OCC2CCOCC2)cc(S(=O)(=O)c2ccc3c(c2)OC2CNCCC32)c1 (stereo not drawn) (as salt: HCl) [Example 584] | 207 to 208 °C |
| CNC(=O)c1cccc(S(=O)(=O)c2ccc3c4c(oc3c2)CNCC4)c1 (as salt: HCl) [Example 478] | > 290 °C |
| Cn1cnc(COc2cccc(S(=O)(=O)c3ccc4c(c3)OC3CNCCC43)c2)n1 (stereo not drawn) (as salt: HCl) [Example 560] | 187 to 190 °C |
| O=S(=O)(c1cccc(F)c1)c1ccc2c3c(oc2c1)C(CF)(CF)NCC3 [Example 35, 1,1-bis(fluoromethyl)-7-[(3-fluorophenyl)sulfonyl]-1,2,3,4-tetrahydro[1]benzofuro[2,3-c]pyridine] | 154 to 157 °C |
| Cc1nc(COc2cccc(S(=O)(=O)c3ccc4c(c3)OC3CNCCC43)c2)cs1 (stereo not drawn) (as salt: HCl) [Example 569] | 205 to 208 °C |
| CC(C)Oc1cccc(S(=O)(=O)c2ccc3c(c2)OC2CNCCC32C)c1 (single isomer, unassigned) (as salt: HCl) [Example 21, 4a-methyl-7-{[3-(propan-2-yloxy)phenyl]sulfonyl}-1,2,3,4,4a,9a-hexahydro[1]benzofuro[2,3-c]pyridine] | 183 to 184 °C |
| CC(C)CC1(C)NCCc2c1oc1cc(S(=O)(=O)c3cccc(F)c3)ccc21 (racemic) (as salt: HCl) [Example 36, 7-[(3-fluorophenyl)sulfonyl]-1-methyl-1-(2-methylpropyl)-1,2,3,4-tetrahydro[1]benzofuro[2,3-c]pyridine] | 284 to 286 °C |

| Structure (SMILES) | melting point |
| --- | --- |
| COc1cccc(S(=O)(=O)c2ccc3c(c2)OC2CNCCC32C)c1 (racemic) (as salt: HCl) [Example 4, 7-[(3-methoxyphenyl)sulfonyl]-4a-methyl-1,2,3,4,4a,9a-hexahydro[1]benzofuro[2,3-c]pyridine] | 279 to 280 °C |
| CC12CCNCC1Oc1cc(S(=O)(=O)c3ncccn3)ccc12 (racemic) (as salt: HCl) [Example 9, 4a-methyl-7-(pyrimidin-2-ylsulfonyl)-1,2,3,4,4a,9a-hexahydro[1]benzofuro[2,3-c]pyridine] | 232 to 234 °C |
| O=S(=O)(c1cccc(OCC2CCOCC2)c1)c1ccc2c(c1)OC1CNCCC21 (stereo not drawn) (as salt: HCl) [Example 570, 7-{[3-(tetrahydro-2H-pyran-4-ylmethoxy)phenyl]sulfonyl}-1,2,3,4,4a,9a-hexahydro[1]benzofuro[2,3-c]pyridine] | 188 to 190 °C |
| CC1OCCC12NCCc1c2oc2cc(S(=O)(=O)c3cccc(F)c3)ccc12 (single isomer, unassigned) (as salt: HCl) [Example 59, 7-[(3-Fluorophenyl)sulfonyl]-2′-methyl-3,4,4′,5′-tetrahydro-2H-spiro[1-benzofuro[2,3-c]pyridine-1,3′-furan]] | 262 to 265 °C |
| Cc1c(OCC2CCOCC2)cccc1S(=O)(=O)c1ccc2c(c1)OC1CNCCC21 (stereo not drawn) (as salt: HCl) [Example 582] | 201 to 202 °C |
| O=S(=O)(c1cccc(Oc2ccccn2)c1)c1ccc2c(c1)OC1CNCCC21 (stereo not drawn) (as salt: HCl) [Example 579] | 198 to 203 °C |
| CC(C)Oc1cccc(S(=O)(=O)c2ccc3c4c(oc3c2)C2(CCOCC2)NCC4)c1 (as salt: HCl) [Example 44, 7-{[3-(propan-2-yloxy)phenyl]sulfonyl}-2′,3,3′,4,5′,6′-hexahydro-2H-spiro[1-benzofuro[2,3-c]pyridine-1,4′-pyran]] | 250 °C (dec.) |
| CC(C)Oc1cccc(S(=O)(=O)c2ccc3c4c(oc3c2)C2(CCC2)NCC4)c1 (as salt: HCl) [Example 26, 7-{[3-(propan-2-yloxy)phenyl]sulfonyl}-3,4-dihydro-2H-spiro[1-benzofuro[2,3-c]pyridine-1,1′-cyclobutane]] | > 200 °C (dec.) |
| CC1(C)CNC2(CCOCC2)c2oc3cc([S+]([O-])c4cccc(F)c4)ccc3c21 (racemic) (as salt: HCl) [Example 47, 7-[(3-fluorophenyl)sulfinyl]-4,4-dimethyl-2′,3,3′,4,5′,6′-hexahydro-2H-spiro[1-benzofuro[2,3-c]pyridine-1,4′-pyran]] | 248 to 253 °C |
| CN(C)C(=O)CC1(C)NCCc2c1oc1cc(S(=O)(=O)c3cccc(F)c3)ccc21 (single isomer, unassigned) (as salt: HCl) [Example 50, 2-{7-[(3-fluorophenyl)sulfonyl]-1-methyl-1,2,3,4-tetrahydro[1]benzofuro[2,3-c]pyridin-1-yl}-N,N-dimethylacetamide] | 230 to 233 °C |
| Cc1ccnc(S(=O)(=O)c2ccc3c(c2)OC2CNCCC32C)n1 (racemic) (as salt: HCl) [Example 7, 4a-methyl-7-[(4-methylpyrimidin-2-yl)sulfonyl]-1,2,3,4,4a,9a-hexahydro[1]benzofuro[2,3-c]pyridine] | 199 to 201 °C |
| CCCCOc1cccc(S(=O)(=O)c2ccc3c(c2)OC2CNCCC32)c1 (stereo not drawn) (as salt: HCl) [Example 554] | 206 to 208 °C |
| CC12CCNCC1Oc1cc(S(=O)(=O)c3ccccn3)ccc12 (racemic) (as salt: HCl) [Example 8, 4a-methyl-7-(pyridin-2-ylsulfonyl)-1,2,3,4,4a,9a-hexahydro[1]benzofuro[2,3-c]pyridine] | 282 to 283 °C |
| CC12CCNCC1Oc1ccc(S(=O)(=O)c3cc[n+]([O-])cc3)cc12 (racemic) (as salt: HCl) [Example 14, 4a-methyl-6-[(1-oxidopyridin-4-yl)sulfonyl]-1,2,3,4,4a,9a-hexahydro[1]benzofuro[2,3-c]pyridine] | 207 to 210 °C |
| CNC(=O)c1c(F)cccc1S(=O)(=O)c1ccc2c(c1)OC1CNCCC21 (stereo not drawn) (as salt: HCl) [Example 477] | > 200 °C |
| CC1(C)NCCc2c1oc1cc(S(=O)(=O)c3cccc(Cl)c3)ccc21 (as salt: HCl) [Example 17, 7-[(3-chlorophenyl)sulfonyl]-1,1-dimethyl-1,2,3,4-tetrahydro[1]benzofuro[2,3-c]pyridine] | > 200 °C (dec.) |
| CC1(C)CNC(C2CCOCC2)c2oc3cc(S(=O)(=O)c4cccc(F)c4)ccc3c21 (racemic) (as salt: HCl) [Example 45, 7-[(3-fluorophenyl)sulfonyl]-4,4-dimethyl-1-(tetrahydro-2H-pyran-4-yl)-1,2,3,4-tetrahydro[1]benzofuro[2,3-c]pyridine] | 248 to 252 °C |
| O=S(=O)(c1cccc(F)c1)c1ccc2c3c(oc2c1)C1(CCCC1)NCC3 (as salt: HCl) [Example 28, 7-[(3-fluorophenyl)sulfonyl]-3,4-dihydro-2H-spiro[1-benzofuro[2,3-c]pyridine-1,1′-cyclopentane]] | > 250 °C |
| O=S(=O)(c1cccc(Oc2cnccn2)c1)c1ccc2c(c1)OC1CNCCC21 (stereo not drawn) (as salt: HCl) [Example 580] | 234 to 236 °C |
| O=C(COc1cccc(S(=O)(=O)c2ccc3c(c2)OC2CNCCC32)c1)N1CCCC1 (stereo not drawn) (as salt: HCl) [Example 564] | 195 to 196 °C |
| Cc1cccc(S(=O)(=O)c2ccc3c4c(oc3c2)C(C)(C)NCC4)n1 (as salt: HCl) [Example 19, 1,1-dimethyl-7-[(6-methylpyridin-2-yl)sulfonyl]-1,2,3,4-tetrahydro[1]benzofuro[2,3-c]pyridine] | 305 to 310 °C |
